Assay results from the supplement of paper PMC10307832.

Experiments:
Assay in all cases: relative viability (nuclei count vs DMSO), 5 days (fraction); higher = more cells survive
[1] = compound: O=C(/C=C/c1ccccc1)NC(NC(=S)Nc1cccc2cccnc12)C(Cl)(Cl)Cl [Salubrinal] + COc1cc2c(Oc3ccc(NC(=O)C4(C(=O)Nc5ccc(F)cc5)CC4)cc3F)ccnc2cc1OCCCN1CCOCC1 [Foretinib] (partner 0.25 µM)
How it was run: (§1)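 Lung cancer cell lines, seeded in 1536-well plates, were treated the following day by pin tool with a single drug or with five library-drug doses (not always all listed) in √10 steps on top of a fixed anchor-drug dose. Cells were fixed and nuclei stained in one step after 5 days, and nuclei were counted. Relative viability is the nuclei count for treated wells divided by that for vehicle wells, reported as medians of duplicate plates.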

[2] = compound: O=C(/C=C/c1ccccc1)NC(NC(=S)Nc1cccc2cccnc12)C(Cl)(Cl)Cl [Salubrinal] + CC(=O)Nc1cccc(-n2c(=O)n(C3CC3)c(=O)c3c(Nc4ccc(I)cc4F)n(C)c(=O)c(C)c32)c1 [Trametinib] (partner 0.02 µM)
How it was run: as §1

[3] = compound: Cc1ccc2nc(NCCN)c3ncc(C)n3c2c1 + Cc1nc(Nc2ncc(C(=O)Nc3c(C)cccc3Cl)s2)cc(N2CCN(CCO)CC2)n1 [Dasatinib] (partner 0.075 µM)
How it was run: as §1

[4] = compound: Cc1ccc2nc(NCCN)c3ncc(C)n3c2c1 + CC(C)C[C@H](NC(=O)[C@H](Cc1ccccc1)NC(=O)c1cnccn1)B(O)O [Bortezomib] (partner 0.002 µM)
How it was run: as §1

Cell Line	relative viability ([1]; first compound 0.08 µM)	relative viability ([1]; first compound 0.253 µM)	relative viability ([1]; first compound 0.8 µM)	relative viability ([1]; first compound 2.53 µM)	relative viability ([1]; first compound 8 µM)	relative viability ([2]; first compound 0.08 µM)	relative viability ([2]; first compound 0.253 µM)	relative viability ([2]; first compound 0.8 µM)	relative viability ([2]; first compound 2.53 µM)	relative viability ([2]; first compound 8 µM)	relative viability ([3]; first compound 0.04 µM)	relative viability ([3]; first compound 0.1265 µM)	relative viability ([3]; first compound 0.4 µM)	relative viability ([3]; first compound 1.265 µM)	relative viability ([3]; first compound 4 µM)	relative viability ([4]; first compound 0.04 µM)	relative viability ([4]; first compound 0.1265 µM)	relative viability ([4]; first compound 0.4 µM)	relative viability ([4]; first compound 1.265 µM)	relative viability ([4]; first compound 4 µM)
NCI-H2087	1.12	0.881	1.13	1.36	1.02	0.201	0.191	0.181	0.186	0.207	0.893	0.85	0.767	0.87	0.791	0.756	0.955	0.66	0.824	0.864
LC-2-ad	0.887	0.939	0.919	0.966	0.886	1.01	0.848	0.885	0.946	0.917	0.701	0.582	0.497	0.592	0.324	1.06	0.978	1	1.02	0.81
NCI-H1915	1.11	0.932	1.28	1.14	1.08	0.219	–	0.583	0.314	0.311	0.334	0.328	–	0.291	0.25	0.977	–	0.685	0.964	0.915
NCI-H2023	1.03	0.882	0.777	0.844	0.818	0.601	0.617	0.509	0.447	0.416	0.711	0.565	0.608	0.548	0.388	1.17	1.01	0.938	1.16	0.858
COR-L 105	0.981	1.14	1.22	0.892	1.02	0.466	0.559	0.407	0.477	0.449	0.446	0.385	0.416	0.402	0.343	0.89	0.867	0.723	0.853	0.737
RERF-LC-KJ	0.959	0.699	0.941	0.921	0.706	0.872	0.867	0.938	0.795	0.81	0.873	0.698	0.757	0.748	0.503	1.19	0.968	1.11	1.07	0.983
LXF-289	1.12	0.909	1.01	0.963	0.925	0.747	0.59	0.7	0.702	0.681	0.262	0.231	0.247	0.245	0.275	1.01	0.97	0.987	0.984	0.994
PC-14	1.02	0.873	1.1	1	0.931	0.695	0.753	0.736	0.588	0.629	0.285	0.276	0.299	0.206	0.0944	0.957	0.884	0.761	0.904	0.782
NCI-H650	1.06	1.19	1.02	1.1	1.05	1.1	0.94	1.08	1	0.976	0.49	0.449	0.464	0.431	0.448	0.863	0.673	0.73	0.859	0.621
NCI-H1666	0.987	0.924	0.98	0.999	1.01	0.802	0.869	0.847	0.903	0.783	0.788	0.781	0.849	0.604	0.77	0.878	0.8	0.762	1.03	0.689
NCI-H2085	1.2	0.793	0.894	0.924	1.01	0.632	0.539	0.617	0.52	0.487	0.207	0.263	0.222	0.196	0.243	1.13	1.02	1.04	1.05	1.03
NCI-H1734	0.944	0.774	0.981	0.841	0.779	0.704	0.742	0.787	0.656	0.597	0.515	0.456	0.474	0.447	0.409	1.04	0.965	0.942	0.935	0.999
NCI-H2126	1.51	1.13	1.1	1.25	1.11	0.592	0.579	0.544	0.576	0.513	0.663	0.696	0.592	0.549	0.493	1.15	1.1	1.18	1.16	1.13
EMC-BAC-2	0.975	1	1.21	1.03	0.98	0.948	0.878	0.937	0.906	0.973	0.339	0.335	0.345	0.276	0.307	1.12	1.12	0.957	1.13	1.05
NCI-H1993	0.818	0.767	0.792	0.736	0.713	0.506	0.614	0.503	–	0.616	0.463	0.651	0.533	0.497	0.539	1.21	1.07	0.921	1.11	0.875
NCI-H520	0.914	0.798	0.932	0.721	0.912	0.853	0.676	0.843	0.633	0.685	0.363	0.208	0.229	0.284	0.262	0.656	0.544	0.464	0.568	0.36
